What all share (assay type): biochemical
In one test the target is human PLK4 (Homo sapiens (Human), UniProt O00444). The experiment in a line: PLK4 inhibition assay (indirect ELISA). Particulars: read-out: PLK4 IC50 Ranges. A general note: ELISA stands for enzyme-linked immunosorbent assay.
The next test has as its target FLT3 (Homo sapiens (Human), UniProt P36888). The experiment in a line: FLT3 inhibition assay (Z-Lyte). Particulars: read-out: Flt3 IC50 Ranges.
The target of the next test is Aurora B (Homo sapiens (Human), UniProt Q96GD4). The experiment in a line: Aurora B inhibition assay (Z-Lyte). To be noted: read-out: Aurora B IC50 Ranges.

pIC50: −log10 of the molar value. Structures can show the parent of a compound that is named as a salt.

human PLK4, sequence (O00444 1-391): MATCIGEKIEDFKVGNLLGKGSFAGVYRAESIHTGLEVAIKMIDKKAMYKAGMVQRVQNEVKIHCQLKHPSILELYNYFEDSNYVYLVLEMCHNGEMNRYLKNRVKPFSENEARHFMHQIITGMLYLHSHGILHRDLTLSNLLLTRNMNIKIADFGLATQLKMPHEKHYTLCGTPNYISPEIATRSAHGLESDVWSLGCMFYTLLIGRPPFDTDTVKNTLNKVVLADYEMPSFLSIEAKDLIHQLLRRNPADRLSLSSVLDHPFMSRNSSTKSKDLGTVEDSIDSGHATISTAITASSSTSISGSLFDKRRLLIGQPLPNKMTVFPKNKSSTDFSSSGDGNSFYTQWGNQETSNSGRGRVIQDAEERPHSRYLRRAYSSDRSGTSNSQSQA
Aurora B, sequence (Q96GD4 whole entry): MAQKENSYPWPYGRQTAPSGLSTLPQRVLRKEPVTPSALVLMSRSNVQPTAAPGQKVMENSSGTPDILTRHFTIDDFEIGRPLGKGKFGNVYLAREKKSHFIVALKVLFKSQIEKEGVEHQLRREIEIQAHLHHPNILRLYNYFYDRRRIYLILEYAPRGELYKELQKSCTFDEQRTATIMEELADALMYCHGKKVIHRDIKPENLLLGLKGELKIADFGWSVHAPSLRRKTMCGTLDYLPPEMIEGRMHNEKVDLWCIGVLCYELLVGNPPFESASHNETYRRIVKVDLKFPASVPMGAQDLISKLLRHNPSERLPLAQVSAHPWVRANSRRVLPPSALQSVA
FLT3, sequence (P36888 27-993): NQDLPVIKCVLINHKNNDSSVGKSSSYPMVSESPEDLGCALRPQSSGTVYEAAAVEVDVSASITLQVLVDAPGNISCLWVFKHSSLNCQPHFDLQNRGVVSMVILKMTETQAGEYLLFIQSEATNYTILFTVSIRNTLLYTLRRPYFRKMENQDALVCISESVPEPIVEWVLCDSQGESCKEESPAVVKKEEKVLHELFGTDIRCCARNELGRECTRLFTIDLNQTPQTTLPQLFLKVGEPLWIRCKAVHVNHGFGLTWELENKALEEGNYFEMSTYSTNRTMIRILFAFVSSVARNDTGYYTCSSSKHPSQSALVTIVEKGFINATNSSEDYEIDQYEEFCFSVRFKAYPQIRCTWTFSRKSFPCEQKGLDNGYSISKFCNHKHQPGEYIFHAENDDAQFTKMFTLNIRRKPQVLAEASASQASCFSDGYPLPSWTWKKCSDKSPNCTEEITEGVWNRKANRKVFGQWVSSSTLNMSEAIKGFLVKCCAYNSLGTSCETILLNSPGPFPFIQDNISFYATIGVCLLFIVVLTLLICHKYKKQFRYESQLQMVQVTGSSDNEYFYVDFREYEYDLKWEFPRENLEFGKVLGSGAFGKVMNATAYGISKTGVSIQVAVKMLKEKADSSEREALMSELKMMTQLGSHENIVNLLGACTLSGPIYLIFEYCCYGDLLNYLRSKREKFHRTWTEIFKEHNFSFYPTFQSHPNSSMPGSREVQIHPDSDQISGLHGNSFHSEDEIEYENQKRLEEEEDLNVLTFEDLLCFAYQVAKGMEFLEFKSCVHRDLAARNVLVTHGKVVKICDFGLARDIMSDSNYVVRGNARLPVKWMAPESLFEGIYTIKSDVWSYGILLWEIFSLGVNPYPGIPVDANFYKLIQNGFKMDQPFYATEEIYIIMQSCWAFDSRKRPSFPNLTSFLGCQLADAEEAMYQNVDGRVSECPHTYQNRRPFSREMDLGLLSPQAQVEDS
Procedure for Aurora B: Aurora B inhibition was determined using the Z-Lyte assay kit from Invitrogen. […] The % inhibition values were determined according to the manufacturer's directions and IC50 values were obtained using a non-linear 4 point logistic curve fit (XLfit4, IDBS)
Procedure for FLT3: The enzymatic activity of FLT3 was determined using the Z-Lyte assay kit from Invitrogen (Invitrogen cat #PV3191). […] The % inhibition values were determined according to the manufacturer's directions and IC50 values were obtained using a non-linear 4 point logistic curve fit (XLfit4, IDBS).

With `COc1ccc2c(c1)[C@]1(C[C@H]1c1ccc3c(-c4cccc(C(=O)N5CCN(C)CC5)c4)n[nH]c3c1)C(=O)N2` (relative stereo) [Example A149, (1R*,2S*)-5′-methoxy-2-(3-(3-(4-methylpiperazine-1-carbonyl)phenyl)-1H-indazol-6-yl)spiro[cyclopropane-1,3′-indolin]-2′-one 2,2,2-trifluoroacetate], the pIC50 (in general, the negative decadic logarithm of the IC50, by convention in mol/L) on human PLK4 is more than 7.00; at FLT3 it was less than 6.00; at Aurora B, less than 6.00.

Regarding `COc1ccc2c(c1)[C@@]1(C[C@@H]1c1ccc3c(-c4ccc(N5CCN(C)CC5)nc4)n[nH]c3c1)C(=O)N2` (stereo in doubt) [Example A16, (1S,2R)-5′-methoxy-2-(3-(6-(4-methylpiperazin-1-yl)pyridin-3-yl)-1H-indazol-6-yl)spiro[cyclopropane-1,3′-indolin]-2′-one], the negative-log IC50 (pIC50) at human PLK4, at FLT3 and on Aurora B was more than 7.00 in each case.

As to `COc1ccc2c(c1)[C@]1(C[C@H]1c1ccc3c(-c4ccc5c(c4)CNCC5)n[nH]c3c1)C(=O)N2` [Example A71, (1R,2S)-5′-methoxy-2-(3-(1,2,3,4-tetrahydroisoquinolin-7-yl)-1H-indazol-6-yl)spiro[cyclopropane-1,3′-indolin]-2′-one 2,2,2-trifluoroacetate salt], the negative-log IC50 (pIC50) is more than 7.00 on human PLK4, 6.00 to 7.00 on FLT3 and more than 7.00 at Aurora B.

As to `CCN1CCN(c2ccc(-c3n[nH]c4cc([C@@H]5C[C@@]56C(=O)Nc5ccc(OC)cc56)ccc34)cc2)CC1` [Example A99, (1R,2S)-2-(3-(4-(4-ethylpiperazin-1-yl)phenyl)-1H-indazol-6-yl)-5′-methoxyspiro[cyclopropane-1,3′-indolin]-2′-one 2,2,2-trifluoroacetate], the pIC50 at human PLK4, on FLT3 and on Aurora B was more than 7.00 in each case.

Turning to `COc1ccc2c(c1)[C@]1(C[C@H]1c1ccc3c(/C=C/c4ccc(CN5CC[C@@H](F)C5)cc4)n[nH]c3c1)C(=O)N2` [Example A112, (1R,2S)-(E)-2-(3-(4-(((R)-3-fluoropyrrolidin-1-yl)methyl)styryl)-1H-indazol-6-yl)-5′-methoxyspiro[cyclopropane-1,3′-indolin]-2′-one 2,2,2-trifluoroacetate], the pIC50 on human PLK4 is more than 7.00; at FLT3 it was 6.00 to 7.00; at Aurora B it was more than 7.00.

Take `COc1ccc2c(c1)[C@]1(C[C@H]1c1ccc3c(-c4ccc(N5C[C@@H](C)N[C@@H](C)C5)cc4)n[nH]c3c1)C(=O)N2` [Example A126, (1R,2S)-2-(3-(4-(cis-3,5-dimethylpiperazin-1-yl)phenyl)-1H-indazol-6-yl)-5′-methoxyspiro[cyclopropane-1,3′-indolin]-2′-one 2,2,2-trifluoroacetate]: the results for the pIC50 on human PLK4, at FLT3 and on Aurora B were more than 7.00, 6.00 to 7.00 and more than 7.00, respectively.

As to `COc1ccc2c(c1)[C@]1(C[C@H]1c1ccc3c(-c4ccc(N(C)CCN(C)C)cc4)n[nH]c3c1)C(=O)N2` [Example A129, (1R,2S)-2-(3-(4-((2-(dimethylamino)ethyl)(methyl)amino)phenyl)-1H-indazol-6-yl)-5′-methoxyspiro[cyclopropane-1,3′-indolin]-2′-one 2,2,2-trifluoroacetate], the pIC50 is more than 7.00 at human PLK4, 6.00 to 7.00 on FLT3 and more than 7.00 on Aurora B.

For `COCCN1C(=O)[C@@]2(C[C@H]2c2ccc3c(/C=C/c4ccc(CN(C)C)cc4)n[nH]c3c2)c2ccccc21` [Example A131, (1R,2S)-(E)-2-(3-(4-((dimethylamino)methyl)styryl)-1H-indazol-6-yl)-1′-(2-methoxyethyl)spiro[cyclopropane-1,3′-indolin]-2′-one 2,2,2-trifluoroacetate], the pIC50 was more than 7.00 at human PLK4, less than 6.00 on FLT3 and more than 7.00 on Aurora B.

Regarding `COc1ccc2c(c1)[C@]1(C[C@H]1c1ccc3c(/C=C/c4ccc(N5CCN(C)CC5)cc4)n[nH]c3c1)C(=O)N2` [Example A175, (1R,2S)-(E)-5′-methoxy-2-(3-(4-(4-methylpiperazin-1-yl)styryl)-1H-indazol-6-yl)spiro[cyclopropane-1,3′-indolin]-2′-one 2,2,2-trifluoroacetate], the pIC50 at human PLK4, at FLT3 and on Aurora B was more than 7.00 in each case.

Take `COc1ccc2c(c1)[C@]1(C[C@H]1c1ccc3c(-c4ccc(N5CCN(C6CCCC6)CC5)cc4)n[nH]c3c1)C(=O)N2` [Example A192, (1R,2S)-2-(3-(4-(4-cyclopentylpiperazin-1-yl)phenyl)-1H-indazol-6-yl)-5′-methoxyspiro[cyclopropane-1,3′-indolin]-2′-one 2,2,2-trifluoroacetate]: the pIC50 is more than 7.00 at human PLK4, 6.00 to 7.00 on FLT3 and more than 7.00 at Aurora B.

These data come from patent US9907800B2, “Kinase inhibitors and method of treating cancer” (University Health Network, priority 2010, dated 2018).
